Here are results for eight molecules from US8138188B2, “Melanocortin type 4 receptor agonist piperidinoylpyrrolidines” (Pfizer Inc., priority 2006, dated 2012).

One data set has as its target T1, CYP3A4 (Homo sapiens, UniProt P08684).
T1 construct: utilizes human liver microsomes together with isoform-specific clinical drug probes; from tissue; host or cells: human liver microsomes
Briefly: High density drug-drug interactions (DDI) 3 μM cocktail screen in human liver microsomes. The conditions noted are these: 3 uM test compound, pooled human liver microsomes, probe midazolam 2 μM; read-out: % Inhibition of 3A4 metabolism at 3 uM. In kind it is in vitro ADME. Background: Microsomes from liver hold many membrane-bound enzymes, among them those of drug oxidation.

The target of the next data set is T2, human MC3 receptor (Homo sapiens, UniProt P41968).
T2 construct: stably transfected with full length cDNA encoding human MC1 or MC3 receptors; expressed in transfected cells; host or cells: Chinese hamster ovary cell line (MC3; 'respectively')
T2 sequence (P41968 whole entry): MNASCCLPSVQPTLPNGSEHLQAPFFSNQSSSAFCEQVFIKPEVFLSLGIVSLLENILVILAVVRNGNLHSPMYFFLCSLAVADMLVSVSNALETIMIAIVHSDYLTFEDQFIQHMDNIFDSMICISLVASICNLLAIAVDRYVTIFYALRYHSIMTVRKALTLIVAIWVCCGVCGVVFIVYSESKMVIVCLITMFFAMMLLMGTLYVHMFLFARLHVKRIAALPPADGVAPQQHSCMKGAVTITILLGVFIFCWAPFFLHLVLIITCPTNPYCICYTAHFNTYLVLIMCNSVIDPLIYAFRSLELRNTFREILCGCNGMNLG
As to the kind of experiment: In vitro agonist potency (EC50) against melanocortin receptor type 3, cAMP in recombinant cell line. The conditions noted are these: cell line stably transfected with human MC3, 1 hour at 37° C. It counts as cell-based.

T1 sequence (P08684 whole entry, canonical isoform): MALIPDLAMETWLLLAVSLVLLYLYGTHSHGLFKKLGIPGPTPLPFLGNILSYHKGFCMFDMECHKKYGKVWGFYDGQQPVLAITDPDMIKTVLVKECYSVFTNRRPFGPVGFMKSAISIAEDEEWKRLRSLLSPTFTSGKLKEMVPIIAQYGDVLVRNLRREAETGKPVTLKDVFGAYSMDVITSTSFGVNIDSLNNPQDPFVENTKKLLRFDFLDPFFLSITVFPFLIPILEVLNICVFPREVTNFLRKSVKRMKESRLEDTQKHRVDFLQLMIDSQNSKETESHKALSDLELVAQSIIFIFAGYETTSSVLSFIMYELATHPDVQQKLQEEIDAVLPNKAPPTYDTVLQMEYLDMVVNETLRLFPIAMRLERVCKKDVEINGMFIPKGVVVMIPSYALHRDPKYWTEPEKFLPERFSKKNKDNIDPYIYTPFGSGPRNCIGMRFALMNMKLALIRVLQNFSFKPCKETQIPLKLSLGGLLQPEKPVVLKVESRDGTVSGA

Usually inhibition stands for how much of the control response was suppressed. A word on the EC50: it is the concentration that produces a half-maximal response. In the case of `C[C@@H]1CN(C(=O)[C@@H]2CN(c3ccc(C#N)nn3)C[C@H]2c2ccc(Cl)cn2)C[C@H](C)[C@@]1(O)c1ccc(F)cc1` [Example 2, 6-[(3S,4S)-3-(5-Chloropyridin-2-yl)-4-{[(3R,4R,5S)-4-(4-fluorophenyl)-4-hydroxy-3,5-dimethylpiperidin-1-yl]carbonyl}pyrrolidin-1-yl]pyridazine-3-carbonitrile], the inhibition at 3 μM on CYP3A4 amounted to 64%. Further, the EC50 at human MC3 receptor was found to be 4.26 nM.

Consider `CC1CN(C(=O)C2CN(c3ccc(=O)n(C)n3)CC2c2ccc(F)cn2)CC(C)C1(O)c1ccccc1` (stereo not shown) [Example 39], for which the inhibition at 3 μM on CYP3A4 came out at 30%. For the same molecule, the EC50 at human MC3 receptor came to 2100 nM.

In the case of `C[C@@H]1CN(C(=O)[C@@H]2CN(c3ccc(Cl)nn3)C[C@H]2c2ccc(Cl)cn2)C[C@H](C)[C@@]1(O)c1ccccn1` [Example 31], the inhibition at 3 μM on CYP3A4 turned out to be 60%. Besides, the concentration for a half-maximal effect (EC50) on human MC3 receptor amounted to 410 nM.

Take `C[C@@H]1CN(C(=O)[C@@H]2CN(c3ccc(=O)n(C)n3)C[C@H]2c2ccc(F)cn2)C[C@H](C)[C@@]1(O)c1ccc(Cl)cc1` [Example 7, 6-[(3S,4S)-3-{[(3R,4R,5S)-4-(4-chlorophenyl)-4-hydroxy-3,5-dimethylpiperidin-1-yl]carbonyl}-4-(5-fluoropyridin-2-yl)pyrrolidin-1-yl]-2-methylpyridazin-3(2H)-one]: on CYP3A4, the inhibition at 3 μM is 19%. Further, the EC50 at human MC3 receptor turned out to be 1600 nM.

On to `C[C@@H]1CN(C(=O)[C@@H]2CN(c3ccc(=O)[nH]n3)C[C@H]2c2ccc(Cl)cn2)C[C@H](C)[C@@]1(O)c1ccccn1` [Example 28], for which the inhibition at 3 μM at CYP3A4 was determined as 77%. Further, on human MC3 receptor, the EC50 worked out at 938 nM.

As to `CC1CN(C(=O)C2CN(c3ccc(C#N)nn3)CC2c2ccc(F)cn2)CC(C)C1(O)c1ccccc1` (stereo not shown) [Example 33], the inhibition at 3 μM at CYP3A4 was 19%. In addition, at human MC3 receptor, the half-maximal effective concentration (EC50) worked out at 193 nM.

As to `CC1CN(C(=O)C2CN(c3ccc(=O)n(C)n3)CC2c2ccc(Cl)cn2)CC(C)C1(O)c1ccc(Cl)cc1` (stereo not shown) [Example 23], the inhibition at 3 μM at CYP3A4 stood at 35%. Moreover, on human MC3 receptor, the half-maximal effective concentration (EC50) stood at 185 nM.

`C[C@@H]1CN(C(=O)[C@@H]2CN(c3ccc(=O)n(C)n3)C[C@H]2c2ccc(Cl)cn2)C[C@H](C)[C@@]1(O)c1ccc(Cl)cn1` [Example 10]: the inhibition at 3 μM on CYP3A4 was 19%. Moreover, on human MC3 receptor, the EC50 is 493 nM.
